Experiments:
THP-1 cells = experiment: Cell growth inhibition assay (CellTiter-Glo), THP-1; details: for GI50: Homo sapiens, THP-1, read-out: THP-1 GI50; for THP-1 TGI: THP-1 cells, total growth inhibition, CellTiter-Glo;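 for all read-outs here: viability read as cellular ATP luminescence after 4 days, 3-fold dilution series from 10 µM, DMSO vehicle-treated cells taken as 100%, cell-free medium wells as −100%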
K-562 cells = experiment: Cell growth inhibition assay (CellTiter-Glo), K-562; details: for GI50: Homo sapiens, K562, read-out: K-562 GI50; for K-562 TGI: K-562 cells, total growth inhibition, CellTiter-Glo;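 for all read-outs here: cellular ATP measured by luminescence after 4 days of exposure, 3-fold dilution series from 10 µM, DMSO vehicle-treated cells define 100%, cell-free medium wells −100%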
BRD3 (His-Brd3(20-477)) = BRD3 (His-Brd3(20-477)) (Homo sapiens (Human), UniProt Q15059); experiment: TR-FRET in-vitro binding assay for BRD3; details: single determination or n ≧ 2 independent determinations, read-out: Biochemical IC50 BRD3
BRD3 (His-Brd3(20-477)), sequence (Q15059 20-477): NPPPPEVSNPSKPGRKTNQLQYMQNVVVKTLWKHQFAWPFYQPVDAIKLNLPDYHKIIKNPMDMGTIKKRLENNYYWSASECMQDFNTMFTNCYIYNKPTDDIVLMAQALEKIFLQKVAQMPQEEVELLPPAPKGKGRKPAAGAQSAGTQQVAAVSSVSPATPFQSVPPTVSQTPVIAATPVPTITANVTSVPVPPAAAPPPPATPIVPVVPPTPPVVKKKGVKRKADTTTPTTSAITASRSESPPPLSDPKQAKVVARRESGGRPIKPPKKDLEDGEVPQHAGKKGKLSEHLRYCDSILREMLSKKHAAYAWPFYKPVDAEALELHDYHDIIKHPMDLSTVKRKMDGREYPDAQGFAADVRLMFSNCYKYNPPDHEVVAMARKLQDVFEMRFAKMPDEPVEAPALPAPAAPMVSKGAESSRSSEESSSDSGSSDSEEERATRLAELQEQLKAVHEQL
Summary of the method: (§1)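 His-tagged BRD2, BRD3 and BRD4 fragments tested by TR-FRET at 8 compound concentrations, with DMSO stocks at 10 mM. Read on EnVision after 35 min incubation at 30° C.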

[1] = target: CREBBP bromodomain (His-CREBBP(1081-1197)) (Homo sapiens (Human), UniProt Q92793); experiment: AlphaScreen in-vitro binding assay for CREBBP; details: single determination or n ≧ 2 independent determinations, read-out: Biochemical IC50 CREBBP
CREBBP bromodomain (His-CREBBP(1081-1197)), sequence (Q92793 1081-1197): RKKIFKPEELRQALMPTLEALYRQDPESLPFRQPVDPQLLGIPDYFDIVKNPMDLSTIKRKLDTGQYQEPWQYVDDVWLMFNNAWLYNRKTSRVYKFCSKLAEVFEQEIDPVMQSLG
Summary of the method: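 Detection used nickel-chelate acceptor plus streptavidin donor AlphaScreen beads, 1 h room temperature. Percent inhibition fitted by non-linear regression to IC50.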

MV-4-11 cells = experiment: Cell growth inhibition assay (CellTiter-Glo), MV-4-11; details: for GI50: Homo sapiens, MV4-11, read-out: MV-4-11 GI50; for MV-4-11 TGI: MV-4-11 cells, total growth inhibition, CellTiter-Glo;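 for all read-outs here: cellular ATP luminescence after 4 days, 3-fold dilution series from 10 µM top dose, vehicle (0.1% DMSO) set to 100%, cell-free medium set to −100%, day 0 corrected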
BRD4 (His-Brd4(44-477)) = BRD4 (His-Brd4(44-477)) (Homo sapiens (Human), UniProt O60885); experiment: TR-FRET in-vitro binding assay for BRD4; details: single determination or n ≧ 2 independent determinations, read-out: Biochemical IC50 BRD4
Summary of the method: as §1

BRD2 (His-Brd2(60-472)) = BRD2 (His-Brd2(60-472)) (Homo sapiens (Human), UniProt P25440); experiment: TR-FRET in-vitro binding assay for BRD2; details: single determination or n ≧ 2 independent determinations, read-out: Biochemical IC50 BRD2
BRD2 (His-Brd2(60-472)), sequence (P25440 60-472): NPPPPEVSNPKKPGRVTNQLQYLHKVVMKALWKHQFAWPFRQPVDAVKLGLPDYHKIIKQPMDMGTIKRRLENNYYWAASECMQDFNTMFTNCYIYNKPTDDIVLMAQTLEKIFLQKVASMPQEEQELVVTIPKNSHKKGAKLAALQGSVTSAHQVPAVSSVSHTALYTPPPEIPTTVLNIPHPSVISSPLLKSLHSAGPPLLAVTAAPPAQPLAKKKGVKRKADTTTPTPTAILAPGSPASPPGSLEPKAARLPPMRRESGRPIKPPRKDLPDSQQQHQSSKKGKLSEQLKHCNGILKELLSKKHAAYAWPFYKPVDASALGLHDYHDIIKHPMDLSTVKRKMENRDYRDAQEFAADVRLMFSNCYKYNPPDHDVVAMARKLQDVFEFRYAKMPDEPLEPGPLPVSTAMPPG
Summary of the method: as §1

| SMILES | GI50 (THP-1 cells) [nM] | THP-1 TGI (THP-1 cells) [nM] | GI50 (K-562 cells) [nM] | K-562 TGI (K-562 cells) [nM] | IC50 (BRD3 (His-Brd3(20-477))) [nM] | IC50 [1] [nM] | GI50 (MV-4-11 cells) [nM] | MV-4-11 TGI (MV-4-11 cells) [nM] | IC50 (BRD4 (His-Brd4(44-477))) [nM] | IC50 (BRD2 (His-Brd2(60-472))) [nM] |
| --- | --- | --- | --- | --- | --- | --- | --- | --- | --- | --- |
| COc1cc(N2C(=O)c3nc(C4=CCCN(C)C4)n(C(C)C)c3C2c2ccc(Cl)cc2)cc2c1nnn2C (centres unmarked) [Example 62] | 164 | 331.5 | 391 | >10000 | 86 | 31400 | 41.9 | 80.25 | 120 | 150 |
| COc1cc(N2C(=O)c3nc(C)n(C(C)C)c3C2c2ccc(Cl)cc2)cc2c1nnn2C (centres unmarked) [Example 63] | 192 | 369 | 458 | >10000 | 96.5 | 21900 | 88.2 | 141 | 72 | 240 |
| COC(=O)N1CC=C(c2nc3c(n2C(C)C)C(c2ccc(Cl)cc2)N(c2cc(C)c4nnc(C)n4c2)C3=O)CC1 (centres unmarked) [Example 65, methyl 4-(6-(4-chlorophenyl)-5-(3,8-dimethyl-[1,2,4]triazolo[4,3-a]pyridin-6-yl)-1-isopropyl-4-oxo-1,4,5,6-tetrahydropyrrolo[3,4-d]imidazol-2-yl)-5,6-dihydropyridine-1(2H)-carboxylate] | 138 | 299.5 | 298 | >10000 | 27.5 | 4000 | 19.3 | 38.95 | 24 | 50 |
| CC(=O)N1CC=C(c2nc3c(n2C(C)C)C(c2ccc(Cl)cc2)N(c2cc(C)c4nnc(C)n4c2)C3=O)CC1 (centres unmarked) [Example 66] | 1760 | 5860 | 5540 | >10000 | 66 | 3450 | 232 | 430 | 31.5 | 86 |
| Cc1cc(N2C(=O)c3nc(C4=CCN(S(C)(=O)=O)CC4)n(C(C)C)c3C2c2ccc(Cl)cc2)cn2c(C)nnc12 (centres unmarked) [Example 67, 6-(4-chlorophenyl)-5-(3,8-dimethyl-[1,2,4]triazolo[4,3-a]pyridin-6-yl)-1-isopropyl-2-(1-(methylsulfonyl)-1,2,3,6-tetrahydropyridin-4-yl)-5,6-dihydropyrrolo[3,4-d]imidazol-4(1H)-one] | 1280 | 3275 | 5400 | >10000 | 20.5 | 5200 | 165 | 332.5 | 17 | 38 |
| CCN1CC=C(c2nc3c(n2C(C)C)C(c2ccc(Cl)cc2)N(c2cc(C)c4nnc(C)n4c2)C3=O)CC1 (centres unmarked) [Example 68, 6-(4-chlorophenyl)-5-(3,8-dimethyl-[1,2,4]triazolo[4,3-a]pyridin-6-yl)-2-(1-ethyl-1,2,3,6-tetrahydropyridin-4-yl)-1-isopropyl-5,6-dihydropyrrolo[3,4-d]imidazol-4(1H)-one] | 258 | 458 | 1380 | >10000 | 44.5 | 5000 | 21.3 | 37.1 | 30 | 77 |
| Cc1cc(N2C(=O)c3nc(C4=CCN(C(=O)OCC(C)C)CC4)n(C(C)C)c3C2c2ccc(Cl)cc2)cn2c(C)nnc12 (centres unmarked) [Example 69, isobutyl 4-(6-(4-chlorophenyl)-5-(3,8-dimethyl-[1,2,4]triazolo[4,3-a]pyridin-6-yl)-1-isopropyl-4-oxo-1,4,5,6-tetrahydropyrrolo[3,4-d]imidazol-2-yl)-5,6-dihydropyridine-1(2H)-carboxylate] | 63.4 | 167.5 | 184 | >10000 | 13 | 6100 | 31.6 | 58.45 | 12 | 24 |
| CCOC(=O)N1CC=C(c2nc3c(n2C(C)C)C(c2ccc(Cl)cc2)N(c2cc(C)c4nnc(C)n4c2)C3=O)CC1 (centres unmarked) [Example 70, ethyl 4-(6-(4-chlorophenyl)-5-(3,8-dimethyl-[1,2,4]triazolo[4,3-a]pyridin-6-yl)-1-isopropyl-4-oxo-1,4,5,6-tetrahydropyrrolo[3,4-d]imidazol-2-yl)-5,6-dihydropyridine-1(2H)-carboxylate] | 59.9 | 188 | 353 | >10000 | 17 | 6650 | 29.6 | 41.3 | 17.5 | 32 |
| Cc1cc(N2C(=O)c3nc(C4=CCN(C(=O)OC(C)C)CC4)n(C(C)C)c3C2c2ccc(Cl)cc2)cn2c(C)nnc12 (centres unmarked) [Example 71, isopropyl 4-(6-(4-chlorophenyl)-5-(3,8-dimethyl-[1,2,4]triazolo[4,3-a]pyridin-6-yl)-1-isopropyl-4-oxo-1,4,5,6-tetrahydropyrrolo[3,4-d]imidazol-2-yl)-5,6-dihydropyridine-1(2H)-carboxylate] | 63.7 | 138.5 | 228 | >10000 | 18 | 4300 | 31.3 | 44.5 | 18.5 | 33 |
| Cc1cc(N2C(=O)c3nc(C4=CCN(C(=O)NC(C)(C)C)CC4)n(C(C)C)c3C2c2ccc(Cl)cc2)cn2c(C)nnc12 (centres unmarked) [Example 72, N-(tert-butyl)-4-(6-(4-chlorophenyl)-5-(3,8-dimethyl-[1,2,4]triazolo[4,3-a]pyridin-6-yl)-1-isopropyl-4-oxo-1,4,5,6-tetrahydropyrrolo[3,4-d]imidazol-2-yl)-5,6-dihydropyridine-1(2H)-carboxamide] | 222 | 746 | 1340 | >10000 | < 11 | 5100 | 45.8 | 96.9 | 12 | 23 |
| COc1cc(N2C(=O)c3nc(C4=CCN(C)CC4)n(C(C)C)c3C2c2ccc(Cl)cc2)cc2c1nnn2C (centres unmarked) [Example 73] | 93.6 | 254.5 | 300 | >10000 | 92.5 | 16100 | 30.6 | 52.7 | 58 | 150 |
| Cc1cc(N2C(=O)c3nc(C4CCNCC4)n(C(C)C)c3C2c2ccc(Cl)cc2)cn2c(C)nnc12 (centres unmarked) [Example 75, 6-(4-chlorophenyl)-5-(3,8-dimethyl-[1,2,4]triazolo[4,3-a]pyridin-6-yl)-1-isopropyl-2-(Piperidin-4-yl)-5,6-dihydropyrrolo[3,4-d]imidazol-4(1H)-one] | 1600 | 8630 | 8650 | >10000 | 24 | 4900 | 780 | 1125 | 17 | 27 |
| COC(=O)N1CCC(c2nc3c(n2C(C)C)C(c2ccc(Cl)cc2)N(c2cc(C)c4nnc(C)n4c2)C3=O)CC1 (centres unmarked) [Example 76, methyl 4-(6-(4-chlorophenyl)-5-(3,8-dimethyl-[1,2,4]triazolo[4,3-a]pyridin-6-yl)-1-isopropyl-4-oxo-1,4,5,6-tetrahydropyrrolo[3,4-d]imidazol-2-yl)piperidine-1-carboxylate] | 95.7 | 266 | 314 | >10000 | 64 | 2050 | 23.3 | 38.8 | 54 | 97 |
| Cc1cc(N2C(=O)c3nc(C4=CCN(C)CC4)n(C(C)C)c3C2c2ccc(Cl)cc2)cc2c1nnn2C (centres unmarked) [Example 78, 6-(4-chlorophenyl)-5-(1,4-dimethyl-1H-benzo[d][1,2,3]triazol-6-yl)-1-isopropyl-2-(1-methyl-1,2,3,6-tetrahydropyridin-4-yl)-5,6-dihydropyrrolo[3,4-d]imidazol-4(1H)-one] | 14.4 | 38.8 | 49.6 | >10000 | 31 | 4300 | 4.54 | 9.58 | 28 | 48 |

Reference: US9890166B2, “Imidazopyrrolidine derivatives and their use in the treatment of disease” (NOVARTIS AG, priority 2013, dated 2018)
